# Test results from patent US4316010A, “Cis-C3 "C4 "-carbonate derivatives of O-demethyloleandomycin and intermediates therefor” (Pfizer Inc., priority 1981, dated 1982).
# Experiments:
# Staph. aur. 400 = assay: MIC, serial dilution on BHI agar (inocula replicating device); assay type: cell-based; settings: 18 hrs. at 37° C., read-out: Minimum Inhibitory Concentration (MIC)
# Experimental: (§1) The procedure which is followed is the one recommended by the International Collaborative Study on Antibiotic Sensitivity Testing [Ericcson and Sherris, Acta. Pathologica et Microbiologia Scandinav, Supp. 217, Sections A and B: 64-68 (1971)], and employs brain heart infusion (BHI) agar and the inocula replicating device. Overnight growth tubes are diluted 100 fold for use as the standard inoculum (20,000-10,000 cells in approximately 0.002 ml. are placed on the agar surface; 20 ml. of BHI agar/dish). Twelve 2 fold dilutions of the test compound are employed, with initial concentration of the test drug being 200 mcg./ml. Single colonies are disregarded when reading plates after 18 hrs. at 37° C. The susceptibility (MIC) of the test organism is accepted as the lowest concentration of compound capable of producing complete inhibition of growth as judged by the naked eye. A comparison of the activity of 3"-epioleandomycin-Y 3",4"-carbonate and 4"-epioleandomycin-Y 3",4"-carbonate with that of parent oleandomycin-Y is recorded in the Table.
# Staph. epi. 111 = assay: as above; assay type: cell-based; settings: 18 hrs. at 37° C., read-out: Minimum Inhibitory Concentration (MIC)
# Experimental: as §1
# Strep. faec. 6 = assay: as above; assay type: cell-based; settings: 18 hrs. at 37° C., read-out: Minimum Inhibitory Concentration (MIC)
# Experimental: as §1
# Strep. pyog. 203 = assay: as above; assay type: cell-based; settings: 18 hrs. at 37° C., read-out: Minimum Inhibitory Concentration (MIC)
# Experimental: as §1
# Staph. aur. 52 = assay: as above; assay type: cell-based; settings: 18 hrs. at 37° C., read-out: Minimum Inhibitory Concentration (MIC)
# Experimental: as §1
# Staph. aur. 5 = assay: as above; assay type: cell-based; settings: 18 hrs. at 37° C., read-out: Minimum Inhibitory Concentration (MIC)
# Experimental: as §1
# Bac. sub. 1 = assay: as above; assay type: cell-based; settings: 18 hrs. at 37° C., read-out: Minimum Inhibitory Concentration (MIC)
# Experimental: as §1
# Strep. pneum. 2 = assay: as above; assay type: cell-based; settings: 18 hrs. at 37° C., read-out: Minimum Inhibitory Concentration (MIC)
# Experimental: as §1
# bacteria = settings: background statement on the byproduct; cited from earlier work
# Past. mult. = assay: MIC, serial dilution on BHI agar (inocula replicating device); assay type: cell-based; settings: 18 hrs. at 37° C., read-out: Minimum Inhibitory Concentration (MIC)
# Experimental: as §1
MIC (Staph. aur. 400) [µg/mL],MIC (Staph. epi. 111) [µg/mL],MIC (Strep. faec. 6) [µg/mL],MIC (Strep. pyog. 203) [µg/mL],MIC (Staph. aur. 52) [µg/mL],MIC (Staph. aur. 5) [µg/mL],MIC (Bac. sub. 1) [µg/mL],MIC (Strep. pneum. 2) [µg/mL],MIC (Past. mult.) [µg/mL],Compound,antibacterial activity (in words) (bacteria)
6.25,1.56,3.12,3.12,3.12,3.12,0.78,0.39,50,"C[C@@H]1[C@@H](O[C@@H]2O[C@H](C)C[C@H](N(C)C)[C@H]2O)[C@@H](C)C[C@@]2(CO2)C(=O)[C@H](C)[C@@H](O)[C@@H](C)[C@@H](C)OC(=O)[C@H](C)[C@H]1O[C@H]1C[C@H]2OC(=O)O[C@H]2[C@H](C)O1 [IIa, 3""-epioleandomycin-Y 3"",4""-carbonate]",–
12.5,6.25,12.5,3.12,12.5,12.5,3.12,0.78,–,"C[C@@H]1[C@@H](O[C@@H]2O[C@H](C)C[C@H](N(C)C)[C@H]2O)[C@@H](C)C[C@@]2(CO2)C(=O)[C@H](C)[C@@H](O)[C@@H](C)[C@@H](C)OC(=O)[C@H](C)[C@H]1O[C@H]1C[C@@H]2OC(=O)O[C@@H]2[C@H](C)O1 [IIb, 4""-epioleandomycin-Y 3"",4""-carbonate]",–

Compound,MIC (Staph. aur. 400) [µg/mL],MIC (Staph. epi. 111) [µg/mL],MIC (Strep. faec. 6) [µg/mL],MIC (Strep. pyog. 203) [µg/mL],MIC (Staph. aur. 52) [µg/mL],MIC (Staph. aur. 5) [µg/mL],MIC (Bac. sub. 1) [µg/mL],MIC (Strep. pneum. 2) [µg/mL],MIC (Past. mult.) [µg/mL],antibacterial activity (in words) (bacteria)
"C[C@@H]1[C@@H](O[C@@H]2O[C@H](C)C[C@H](N(C)C)[C@H]2O)[C@@H](C)C[C@@]2(CO2)C(=O)[C@H](C)[C@@H](O)[C@@H](C)[C@@H](C)OC(=O)[C@H](C)[C@H]1O[C@H]1C[C@H](O)[C@@H](O)[C@H](C)O1 [I, O-demethyloleandomycin]",12.5,6.25,6.25,1.56,50,50,6.25,0.78,–,relatively low antibacterial activity
